Results published in patent publication US8604075B2, “Methods and compositions for improving cognitive function” (The Johns Hopkins University, priority 2008, dated 2013).

How the values were obtained:
[1] = system: Age-Impaired (AI) Long-Evans rats; experiment: Morris Water Maze (MWM) retention trial, spatial memory of aged-impaired rats; format: in vivo, rat; details: retention trial 24 hours after last training trial
Description: FIG. 2 depicts the effects of administering levetiracetam on the spatial memory retention of six aged-impaired rats (AI) in a Morris Water Maze (MWM) test. Three treatment conditions were employed: vehicle control, levetiracetam (5 mg/kg/day) and levetiracetam (10 mg/kg/day). The AI rats were trained for two consecutive days, with a one-time treatment prior to the training trials per day. 24 hours later, the AI rats were tested. The time the AI rats, 24 hours after treatment with the different conditions and two days of training, spent swimming in the target quadrant or the target annulus in a memory retention trial is used as a measure of spatial memory retention. The target quadrant refers to the quadrant of the maze (which is a circular pool) where the escape platform is placed during the training trials. The target annulus refers to the exact location of the escape platform during the training trials.
The MWM apparatus consists of a large, circular pool (diameter 1.83 m; height, 0.58 m) filled with water (27° C.) that is made opaque through the addition of non-toxic pigment or some other substance. In the typical “hidden platform” version of the test, rats are trained to find a camouflaged white escape platform (height, 34.5 cm) that is positioned in the center of one quadrant of the maze about 1.0 cm below the water surface. This platform can be retracted to the bottom of the tank or raised to its normal position from outside the maze during behavioral testing. The location of the platform remains constant from trial to trial. […] The behavior of a rat in the pool is recorded by a camera that is suspended 2.5 m above the center of the pool. […]
The MWM protocol is optimized for sensitivity to the effects of aging on cognition and for measures of reliable individual differences within the aged population of out-bred Long-Evans rats (Gallagher et al. Behav. Neurosci. 107:618-626, (1993)). […] At the completion of the protocol using the hidden platform, rats are assessed for cue learning using the visible platform. […]

aged-impaired (AI) rats = experiment: Radial Arm Maze (RAM) task with one-hour delay, spatial memory retention of aged-impaired rats; format: in vivo, rat; details: 30-40 minutes before trial, ten AI rats
Description: FIG. 3 depicts the effects of administering levetiracetam on the spatial memory retention of ten aged-impaired rats (AI) in an eight-arm Radial Arm Maze (RAM) test. Six treatment conditions were employed: vehicle control, levetiracetam (1.25 mg/kg/day), levetiracetam (2.5 mg/kg/day), levetiracetam (5 mg/kg/day), levetiracetam (10 mg/kg/day) and levetiracetam (20 mg/kg/day). In the RAM task used, there was a one-hour delay between presentation of a subset of arms (5 arms available and 3 arms blocked) and completion of the eight-arm win-shift task (eight arms available). Rats were pre-treated 30-40 minutes before daily trials with a one-time drug/control treatment. The number of errors made by the rats after the delay was used as a measure of spatial memory retention. Errors were defined as instances when rats entered an arm from which food had already been retrieved in the pre-delay component of the trial or when rats re-visited an arm in the post-delay session that had already been visited. […]
The effects of levetiracetam on the spatial memory retention of aged-impaired (AI) rats were assessed in a Radial Arm Maze (RAM) behavioral task using vehicle control and five different dosage levels of levetiracetam (1.25 mg/kg/day, 2.5 mg/kg/day, 5 mg/kg/day, 10 mg/kg/day and 20 mg/kg/day). […]

[2] = system: memory-impaired aged rats; details: chronic subcutaneous administration, cited from earlier work
[3] = 100 mg/kg/day, chronic subcutaneous administration; cited from earlier work

| Compound | time spent in the target quadrant, performance compared with vehicle ([1]; 5 mg/kg/day i.p.) | time spent in the target annulus ([1]; 10 mg/kg/day i.p.) | time spent in the target quadrant ([1]; 10 mg/kg/day i.p., vehicle approximately 25%) | average no. of errors ± standard error of the mean (SEM) (aged-impaired (AI) rats; 5 mg/kg/day i.p., vehicle 2.00±0.42, p=0.057) | average no. of errors ± SEM (aged-impaired (AI) rats; 10 mg/kg/day i.p., vehicle 2.00±0.42, p=0.042) | treatment of age-related cognitive impairment ([2]; 50 mg/kg/day) | performance in a memory test ([2]; 100 mg/kg/day) | blood total valproate level [3] |
| --- | --- | --- | --- | --- | --- | --- | --- | --- |
| CC[C@@H](C(N)=O)N1CCCC1=O [levetiracetam, (2S)-2-(2-oxopyrrolidin-1-yl) butanamide] | did not significantly improve | effectivness of the 10 mg/kg/day levetiracetam treatment was also seen | approximately 35 % of total swimming time | 0.75±0.32 | 0.80±0.27 |  |  |  |
| CCCC(CCC)C(=O)O [sodium valproate, 2-propylpentanoate] |  |  |  |  |  | not effective | significantly improved | 10 μg/ml plasma |
